# Data as given in patent publication US8906953B2, “Pyrrolidine substitute flavones for the treatment of inflammatory disorders” (Piramal Enterprises Limited, priority 2010, dated 2014).
# Counter-ions that a name gives are not always drawn.
# Columns and labels:
# [1] = tested on: TNF-α; test: LPS-induced TNF-α release from hPBMCs (ELISA); type: cell-based; details: Homo sapiens; LPS-stimulated hPBMCs, 5 hours; read-out: Activity (TNF-α) IC50
# Procedure: Cytokine production by lipopolysaccharides (LPS) in hPBMCs (human peripheral blood mononuclear cells) was measured as in reference, Physiol. Res. 2003, 52, 593-598, the disclosure of which is incorporated by reference for the teaching of the assay. Blood was collected from healthy donors into Potassium EDTA vacutainer tubes (BID vacutainer). The PBMC were isolated using gradient centrifugation in Histopaque-1077 solution (Sigma). Isolated PBMC were suspended in RPMI 1640 (Rosewell Park Memorial Institute) culture medium (Sigma-Aldrich Fine Chemicals, USA) containing 10% fetal bovine serum (FBS) (JRH, USA), 100 U/mL penicillin (Sigma Chemical Co. St Louis, Mo., USA) and 100 μg/mL streptomycin (Sigma Chemical Co. St Louis, Mo.). The cell concentration was adjusted to 1×10^6 cells/mL. The viability as determined by trypan blue dye exclusion was uniform Ly≧98%. The cell suspension (100 μL) was added to the wells of a 96-well culture plate. Following cell plating, 79 μL of the culture medium and 1 μL of various concentrations of test compounds (compounds of formula 1) (final concentration 0.001, 0.003, 0.005, 0.01, 0.025, 0.03, 0.05, 0.1, 0.25, 0.3 and 1 μM) dissolved in DMSO (dimethyl sulfoxide, Sigma, Mo., USA) were added to the cells. The final concentration of DMSO was adjusted to 0.5%. The vehicle (0.5% DMSO) was used as control. […] The plates were incubated for 30 minutes at 37° C. in an atmosphere of 5% CO2. Finally, 20 μL (10 μg/mL) per well of LPS, (Escherchia coli 0127:B8, Sigma Chemical Co., St. Louis, Mo.) was added to the wells of the incubated plates, for a final concentration of 1 μg/mL. The plates were incubated at 37° C. for 5 hours in an atmosphere of 5% CO2. […] Supernatants were harvested and assayed for TNF-α, IL-1β, IL-6 and IL-8 by ELISA as described by the manufacturer. (OptiEIA ELISA sets, BD Biosciences, Pharmingen). The 50% inhibitory concentration (IC50) values were calculated by a nonlinear regression method using GraphPad software (Prism 3.03).
# [2] = tested on: PDE4; test: PDE4 inhibition, cAMP fluorescence assay in salbutamol-stimulated U937 cells; type: cell-based, human; details: U937 cells, salbutamol 1 μM
# Procedure: Culture medium was changed every 2-3 days and always 24 hours before harvest. RPMI medium, FBS and Salbutamol were purchased from Sigma-Aldrich (USA). Rolipram was synthesized in the Medicinal Chemistry Department, Piramal Life Sciences Limited.
# Rolipram was used as a standard (0.3, 1 and 3 μM). […] Fluorescence measurements were taken with Polarstar Optima (BMG Labtech-Germany).
# Relative fluorescence was calculated using the following formula where: RF=Relative Fluorescence, Fo=fluorescent intensity of the blank or buffer control, F=fluorescence of cAMP or sample: RF=(Fo−F)/Fo
# A standard curve was plotted using the RF values of the given standards and the values of cAMP corresponding to the test compounds were determined using the standard plot.
# [3] = tested on: arthritic (CIA) DBA/1J mice; test: Collagen induced arthritis in mouse; type: in vivo; details: Enbrel 3 mg/kg s.c. once daily, 23 days
# Procedure: The assay was designed as in reference, J. Exp. Med., 1985, 162, 637-646, the disclosure of which is incorporated herein by reference for the teaching of the assay.
# Male DBA/1J mice (originally procured from Jackson Laboratories, USA), aged 8-10 weeks were immunized with an emulsion equivalent to 200 μg of type II collagen in Freund's Complete Adjuvant, injected intradermally at the base of the tail. A booster shot with the same emulsion was given 21 days later. A group of naïve mice was maintained alongside.
# From day 23 to day 56, mice were examined daily once for the signs of rheumatoid arthritis, using the Articular Index and paw thickness as parameters. Articular Index scoring was performed employing the following criteria:
# Mice with a minimum hind paw score of 2 were inducted into the study.
# Mice were randomized into the various study groups and orally administered the vehicle (0.5% CMC, 1 ml/kg), test compound (compound of example 3, 50 mg/kg twice daily) and standard compound (Enbrel, 3 mg/kg, s.c., once daily). […] The dosing of the compounds was done for 23 days.
# The following parameters were observed and recorded daily, • 1. Body weight • 2. Articular index • 3. Paw thickness in mm using a tension free caliper • 4. Any significant observation regarding the condition of the animal. […]
# The results are graphically depicted in FIG. 3 (Articular index versus days of treatment) and FIG. 4 (Paw thickness versus days of treatment). Data obtained during the course of this study (articular index and paw thickness) was statistically evaluated by applying Mann-Whitney U test.
# Mice were humanely euthanized and the hind paws were harvested from each animal, fixed in 10% neutral buffered formalin, decalcified in 5% formic acid and embedded in paraffin. Section […] were stained with either hematoxylin and eosin or safranin 0 and evaluated microscopically. Histopathological changes were scored as follows: mild (score=1), moderate (score=2) or severe (score=3) for the parameters of cellular infiltration, bone erosions and cartilage damage, graded separately. […]
IC50 [1],Molecule,other results
400 nM,"CN1CC[C@@H](c2c(O)cc(O)c3c(=O)cc(-c4ccc([N+](=O)[O-])cc4Cl)oc23)[C@@H]1CO [Compound of example 5, (+)-trans-2-(2-Chloro-4-nitro-phenyl)-5,7-dihydroxy-8-(2-hydroxymethyl-1-methyl-pyrrolidin-3-yl)-chromen-4-one hydrochloride]",–
200 nM,"CN1CC[C@@H](c2c(O)cc(O)c3c(=O)cc(-c4ccccc4Cl)oc23)[C@@H]1CO [Compound of example 7, (+)-trans-2-(2-Chloro-phenyl)-5,7-dihydroxy-8-(2-hydroxymethyl-1-methyl-pyrrolidin-3-yl)-chromen-4-one hydrochloride]",–
900 nM,"CN1CC[C@@H](c2c(O)cc(O)c3c(=O)cc(-c4cc(F)ccc4Br)oc23)[C@@H]1CO [Compound of example 9, (+)-trans-2-(2-Bromo-5-fluoro-phenyl)-5,7-dihydroxy-8-(2-hydroxymethyl-1-methyl-pyrrolidin-3-yl)-chromen-4-one hydrochloride]",–
1500 nM,"CN1CC[C@@H](c2c(O)cc(O)c3c(=O)cc(-c4ccc(C#N)cc4Cl)oc23)[C@@H]1CO [Compound of example 12, (+)-trans-2-(2-Chloro-4-cyano-phenyl)-5,7-dihydroxy-8-(2-hydroxymethyl-1-methyl-pyrrolidin-3-yl)-chromen-4-one hydrochloride]",–
300 nM,"CN1CC[C@@H](c2c(O)cc(O)c3c(=O)cc(-c4ccc([N+](=O)[O-])cc4Br)oc23)[C@@H]1CO [Compound of example 16, (+)-trans-2-(2-Bromo-4-nitro-phenyl)-5,7-dihydroxy-8-(2-hydroxymethyl-1-methyl-pyrrolidin-3-yl)-chromen-4-one hydrochloride]",–
300 nM,"CN1CC[C@@H](c2c(O)cc(O)c3c(=O)cc(-c4ccc(Cl)cc4Cl)oc23)[C@@H]1CO [Compound of example 18, (+)-trans-2-(2,4-Dichloro-phenyl)-5,7-dihydroxy-8-(2-hydroxymethyl-1-methyl-pyrrolidin-3-yl)-chromen-4-one hydrochloride]",–
700 nM,"CN1CC[C@@H](c2c(O)cc(O)c3c(=O)cc(-c4cc(F)ccc4Cl)oc23)[C@@H]1CO [Compound of example 20, (+)-trans-2-(2-Chloro-5-fluoro-phenyl)-5,7-dihydroxy-8-(2-hydroxymethyl-1-methyl-pyrrolidin-3-yl)-chromen-4-one hydrochloride]",–
2300 nM,"CN1CC[C@@H](c2c(O)cc(O)c3c(=O)cc(-c4cccs4)oc23)[C@@H]1CO [Compound of example 22, (+)-trans-5,7-Dihydroxy-8-(2-hydroxymethyl-1-methyl-pyrrolidin-3-yl)-2-thiophen-2-yl-chromen-4-one hydrochloride]",–
400 nM,"CN1CC[C@@H](c2c(O)cc(O)c3c(=O)cc(-c4cccc([N+](=O)[O-])c4)oc23)[C@@H]1CO [Compound of example 26, (+)-trans-5,7-dihydroxy-8-(2-hydroxymethyl-1-methyl-pyrrolidin-3-yl)-2-(3-nitrophenyl)-chromen-4-one hydrochloride]",–
4100 nM,"CN1CC[C@@H](c2c(O)cc(O)c3c(=O)cc(-c4cccc(Br)c4Cl)oc23)[C@@H]1CO [Compound of example 30, (+)-trans-2-(3-Bromo-2-chloro-phenyl)-5,7-dihydroxy-8-(2-hydroxymethyl-1-methyl-pyrrolidin-3-yl)-chromen-4-one hydrochloride]",–
2500 nM,"CN1CC[C@@H](c2c(O)cc(O)c3c(=O)cc(-c4cccc(Cl)c4)oc23)[C@@H]1CO [Compound of example 34, (+)-trans-2-(3-Chloro-phenyl)-5,7-dihydroxy-8-(2-hydroxymethyl-1-methyl-pyrrolidin-3-yl)-chromen-4-one hydrochloride]",–
1300 nM,"CN1CC[C@@H](c2c(O)cc(O)c3c(=O)cc(-c4cccc([N+](=O)[O-])c4Cl)oc23)[C@@H]1CO [Compound of example 38, (+)-trans-2-(2-Chloro-3-nitro-phenyl)-5,7-dihydroxy-8-(2-hydroxymethyl-1-methyl-pyrrolidin-3-yl)-chromen-4-one hydrochloride]",–
2400 nM,"CN1CC[C@@H](c2c(O)cc(O)c3c(=O)cc(-c4cccc(C(F)(F)F)c4Cl)oc23)[C@@H]1CO [Compound of example 42, (+)-trans-2-(2-Chloro-3-trifluoromethyl-phenyl)-5,7-dihydroxy-8-(2-hydroxymethyl-1-methyl-pyrrolidin-3-yl)-chromen-4-one hydrochloride]",–
500 nM,"Cc1cccc(-c2cc(=O)c3c(O)cc(O)c([C@@H]4CCN(C)[C@H]4CO)c3o2)c1Cl [Compound of example 46, (+)-trans-2-(2-Chloro-3-methyl-phenyl)-5,7-dihydroxy-8-(2-hydroxymethyl-1-methyl-pyrrolidin-3-yl)-chromen-4-one hydrochloride]",–
1500 nM,"CN1CC[C@@H](c2c(O)cc(O)c3c(=O)cc(-c4cccc(Cl)c4Cl)oc23)[C@@H]1CO [Compound of example 58, (+)-trans-2-(2,3-Dichloro-phenyl)-5,7-dihydroxy-8-(2-hydroxymethyl-1-methyl-pyrrolidin-3-yl)-chromen-4-one hydrochloride]",–
1300 nM,"CN1CC[C@@H](c2c(O)cc(O)c3c(=O)cc(-c4cccc(I)c4Cl)oc23)[C@@H]1CO [Compound of example 62, (+)-trans-2-(2-Chloro-3-iodo-phenyl)-5,7-dihydroxy-8-(2-hydroxymethyl-1-methyl-pyrrolidin-3-yl)-chromen-4-one hydrochloride]",–
900 nM,"CC(C)Nc1cccc(-c2cc(=O)c3c(O)cc(O)c([C@@H]4CCN(C)[C@H]4CO)c3o2)c1Cl [Compound of example 66, (+)-trans-2-(2-Chloro-3-isopropylamino-phenyl)-5,7-dihydroxy-8-(2-hydroxymethyl-1-methyl-pyrrolidin-3-yl)-chromen-4-one hydrochloride]",–
–,"COc1ccc(C2CNC(=O)C2)cc1OC1CCCC1 (stereo not drawn) [Rolipram, reference compound]",Relative Fluorescence (RF) ([2]; concentration 0.3 μM): 1.39; Relative Fluorescence (RF) ([2]; concentration 1 μM): 1.56; Relative Fluorescence (RF) ([2]; concentration 3 μM): 1.73
–,Enbrel,Severity of disease by articular index and paw thickness [3]: significant reduction in the severity of the disease
